# What was measured:
# [1] = biological target: Amyloid-beta precursor protein (Homo sapiens, UniProt P05067); test: Displacement of […] from Abeta peptide plaques in Alzheimer's disease patient brain
# Liver [2] = test: Biodistribution in ICR mouse liver at 5 to 10 uCi, iv after 2 mins; assay type: ADME, organism-based; settings: in vivo
# Liver [3] = test: Biodistribution in ICR mouse liver at 5 to 10 uCi, iv after 30 mins; assay type: ADME, organism-based; settings: in vivo, 0.5 h
# Lung [4] = test: Biodistribution in ICR mouse lung at 5 to 10 uCi, iv after 2 hrs; assay type: ADME, organism-based; settings: in vivo
# Kidney [5] = test: Biodistribution in ICR mouse kidney at 5 to 10 uCi, iv after 2 mins; assay type: ADME, organism-based; settings: in vivo
# Muscle tissue [6] = test: Biodistribution in ICR mouse muscle at 5 to 10 uCi, iv after 1 hr; assay type: ADME, organism-based; settings: in vivo
# Liver [7] = test: Biodistribution in ICR mouse liver at 5 to 10 uCi, iv after 2 hrs; assay type: ADME, organism-based; settings: in vivo
# Liver [8] = test: Biodistribution in ICR mouse liver at 5 to 10 uCi, iv after 1 hr; assay type: ADME, organism-based; settings: in vivo
# Brain [9] = test: Biodistribution in ICR mouse brain at 5 to 10 uCi, iv after 30 mins; assay type: ADME, organism-based; settings: in vivo, 0.5 h
# Lung [10] = test: Biodistribution in ICR mouse lung at 5 to 10 uCi, iv after 30 mins; assay type: ADME, organism-based; settings: in vivo, 0.5 h
# Lung [11] = test: Biodistribution in ICR mouse lung at 5 to 10 uCi, iv after 2 mins; assay type: ADME, organism-based; settings: in vivo
# Thyroid gland [12] = test: Biodistribution in ICR mouse thyroid at 5 to 10 uCi, iv after 2 mins; assay type: ADME, organism-based; settings: in vivo
# Zone of skin [13] = test: Biodistribution in ICR mouse skin at 5 to 10 uCi, iv after 2 mins; assay type: ADME, organism-based; settings: in vivo
# Kidney [14] = test: Biodistribution in ICR mouse kidney at 5 to 10 uCi, iv after 1 hr; assay type: ADME, organism-based; settings: in vivo
# Spleen [15] = test: Biodistribution in ICR mouse spleen at 5 to 10 uCi, iv after 2 mins; assay type: ADME, organism-based; settings: in vivo
# Muscle tissue [16] = test: Biodistribution in ICR mouse muscle at 5 to 10 uCi, iv after 2 mins; assay type: ADME, organism-based; settings: in vivo
# Spleen [17] = test: Biodistribution in ICR mouse spleen at 5 to 10 uCi, iv after 1 hr; assay type: ADME, organism-based; settings: in vivo
# Kidney [18] = test: Biodistribution in ICR mouse kidney at 5 to 10 uCi, iv after 2 hrs; assay type: ADME, organism-based; settings: in vivo
# [19] = Partition coefficient, log P at pH 7.4; assay type: physicochemical; settings: octanol/water
# Zone of skin [20] = test: Biodistribution in ICR mouse skin at 5 to 10 uCi, iv after 1 hr; assay type: ADME, organism-based; settings: in vivo
# Zone of skin [21] = test: Biodistribution in ICR mouse skin at 5 to 10 uCi, iv after 30 mins; assay type: ADME, organism-based; settings: in vivo, 0.5 h
# Lung [22] = test: Biodistribution in ICR mouse lung at 5 to 10 uCi, iv after 1 hr; assay type: ADME, organism-based; settings: in vivo
# Thyroid gland [23] = test: Biodistribution in ICR mouse thyroid at 5 to 10 uCi, iv after 2 hrs; assay type: ADME, organism-based; settings: in vivo
# Brain [24] = test: Biodistribution in ICR mouse brain at 5 to 10 uCi, iv after 2 mins; assay type: ADME, organism-based; settings: in vivo
# Brain [25] = test: Biodistribution in ICR mouse brain at 5 to 10 uCi, iv after 1 hr; assay type: ADME, organism-based; settings: in vivo
# Muscle tissue [26] = test: Biodistribution in ICR mouse muscle at 5 to 10 uCi, iv after 30 mins; assay type: ADME, organism-based; settings: in vivo, 0.5 h
# Spleen [27] = test: Biodistribution in ICR mouse spleen at 5 to 10 uCi, iv after 30 mins; assay type: ADME, organism-based; settings: in vivo, 0.5 h
# Spleen [28] = test: Biodistribution in ICR mouse spleen at 5 to 10 uCi, iv after 2 hrs; assay type: ADME, organism-based; settings: in vivo
# Brain [29] = test: Biodistribution in ICR mouse brain at 5 to 10 uCi, iv after 2 hrs; assay type: ADME, organism-based; settings: in vivo
# Heart [30] = test: Biodistribution in ICR mouse heart at 5 to 10 uCi, iv after 2 hrs; assay type: ADME, organism-based; settings: in vivo
# Heart [31] = test: Biodistribution in ICR mouse heart at 5 to 10 uCi, iv after 30 mins; assay type: ADME, organism-based; settings: in vivo, 0.5 h
# Muscle tissue [32] = test: Biodistribution in ICR mouse muscle at 5 to 10 uCi, iv after 2 hrs; assay type: ADME, organism-based; settings: in vivo
# Blood [33] = test: Biodistribution in ICR mouse blood at 5 to 10 uCi, iv after 1 hr; assay type: ADME, organism-based; settings: in vivo
# Kidney [34] = test: Biodistribution in ICR mouse kidney at 5 to 10 uCi, iv after 30 mins; assay type: ADME, organism-based; settings: in vivo, 0.5 h
# Heart [35] = test: Biodistribution in ICR mouse heart at 5 to 10 uCi, iv after 1 hr; assay type: ADME, organism-based; settings: in vivo
# Blood [36] = test: Biodistribution in ICR mouse blood at 5 to 10 uCi, iv after 2 hrs; assay type: ADME, organism-based; settings: in vivo
# Brain [37] = test: Ratio of drug distribution in brain after 2 mins to 30 mins in ICR mouse at 5 to 10 uCi, iv; assay type: ADME, organism-based; settings: in vivo
# Thyroid gland [38] = test: Biodistribution in ICR mouse thyroid at 5 to 10 uCi, iv after 1 hr; assay type: ADME, organism-based; settings: in vivo
# Heart [39] = test: Biodistribution in ICR mouse heart at 5 to 10 uCi, iv after 2 mins; assay type: ADME, organism-based; settings: in vivo
# Blood [40] = test: Biodistribution in ICR mouse blood at 5 to 10 uCi, iv after 30 mins; assay type: ADME, organism-based; settings: in vivo, 0.5 h
# Thyroid gland [41] = test: Biodistribution in ICR mouse thyroid at 5 to 10 uCi, iv after 30 mins; assay type: ADME, organism-based; settings: in vivo, 0.5 h
# Blood [42] = test: Biodistribution in ICR mouse blood at 5 to 10 uCi, iv after 2 mins; assay type: ADME, organism-based; settings: in vivo
# Zone of skin [43] = test: Biodistribution in ICR mouse skin at 5 to 10 uCi, iv after 2 hrs; assay type: ADME, organism-based; settings: in vivo
# Amyloid-beta precursor protein, sequence (P05067 whole entry): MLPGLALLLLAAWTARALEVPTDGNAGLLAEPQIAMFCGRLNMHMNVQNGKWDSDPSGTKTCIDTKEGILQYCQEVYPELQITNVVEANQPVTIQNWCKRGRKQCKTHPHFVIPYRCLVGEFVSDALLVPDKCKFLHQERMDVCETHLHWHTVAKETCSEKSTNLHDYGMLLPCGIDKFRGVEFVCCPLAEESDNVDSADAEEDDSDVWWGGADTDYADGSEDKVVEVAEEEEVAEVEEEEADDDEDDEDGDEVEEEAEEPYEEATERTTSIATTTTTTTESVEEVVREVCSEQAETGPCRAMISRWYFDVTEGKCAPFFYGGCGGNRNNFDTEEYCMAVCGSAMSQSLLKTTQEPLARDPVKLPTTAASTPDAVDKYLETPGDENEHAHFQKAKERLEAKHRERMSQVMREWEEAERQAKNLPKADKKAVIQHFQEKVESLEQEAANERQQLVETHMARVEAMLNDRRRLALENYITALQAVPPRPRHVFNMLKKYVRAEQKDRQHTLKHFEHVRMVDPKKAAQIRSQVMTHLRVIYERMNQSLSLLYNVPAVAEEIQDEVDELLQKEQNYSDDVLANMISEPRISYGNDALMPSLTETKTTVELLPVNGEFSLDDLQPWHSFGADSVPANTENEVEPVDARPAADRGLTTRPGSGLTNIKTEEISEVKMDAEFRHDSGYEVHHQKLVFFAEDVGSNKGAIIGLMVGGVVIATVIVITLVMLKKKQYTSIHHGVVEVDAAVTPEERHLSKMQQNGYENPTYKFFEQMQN
smiles,measurement,setting,value
CNc1ccc(/C=C/c2cnc(OCCO)c(Br)c2)cc1,Ki,[1],5 nM
CNc1ccc(/C=C/c2cnc(OCCOCCOCCF)c(I)c2)cc1,Ki,[1],9 nM
CN(C)c1ccc(/C=C/c2cnc(OCCOCCOCCF)c([125I])c2)cc1,Drug uptake,Liver [2],22.2 % ID/g
same,Drug uptake,Liver [3],9.54 % ID/g
same,Drug uptake,Lung [4],1.33 % ID/g
same,Drug uptake,Kidney [5],16.6 % ID/g
same,Drug uptake,Muscle tissue [6],0.59 % ID/g
same,Drug uptake,Liver [7],5.62 % ID/g
same,Drug uptake,Liver [8],5.34 % ID/g
same,Drug uptake,Brain [9],1.93 % ID/g
same,Drug uptake,Lung [10],2.5 % ID/g
same,Drug uptake,Lung [11],10.1 % ID/g
same,Drug uptake,Thyroid gland [12],3.89 % ID/g
same,Drug uptake,Zone of skin [13],0.54 % ID/g
same,Drug uptake,Kidney [14],2.3 % ID/g
same,Drug uptake,Spleen [15],4.47 % ID/g
same,Drug uptake,Muscle tissue [16],0.9 % ID/g
same,Drug uptake,Spleen [17],0.99 % ID/g
same,Drug uptake,Kidney [18],1.71 % ID/g
same,logD,[19],2.2
same,Drug uptake,Zone of skin [20],1.59 % ID/g
same,Drug uptake,Zone of skin [21],1.47 % ID/g
same,Drug uptake,Lung [22],1.62 % ID/g
same,Drug uptake,Thyroid gland [23],60.8 % ID/g
same,Drug uptake,Brain [24],4.03 % ID/g
same,Drug uptake,Brain [25],0.68 % ID/g
same,Drug uptake,Muscle tissue [26],1 % ID/g
same,Drug uptake,Spleen [27],1.42 % ID/g
same,Drug uptake,Spleen [28],0.79 % ID/g
same,Drug uptake,Brain [29],0.26 % ID/g
same,Drug uptake,Heart [30],0.73 % ID/g
same,Drug uptake,Heart [31],1.63 % ID/g
same,Drug uptake,Muscle tissue [32],0.53 % ID/g
same,Drug uptake,Blood [33],1.65 % ID/g
same,Drug uptake,Kidney [34],3.32 % ID/g
same,Drug uptake,Heart [35],0.97 % ID/g
same,Drug uptake,Blood [36],1.45 % ID/g
same,Ratio,Brain [37],2.09
same,Drug uptake,Thyroid gland [38],24.2 % ID/g
same,Drug uptake,Heart [39],12.76 % ID/g
same,Drug uptake,Blood [40],2.05 % ID/g
same,Drug uptake,Thyroid gland [41],16.2 % ID/g
same,Drug uptake,Blood [42],2.7 % ID/g
same,Drug uptake,Zone of skin [43],1.23 % ID/g
CN(C)c1ccc(/C=C/c2cnc(OCCOCCOCCF)c(Br)c2)cc1,Ki,[1],6.8 nM
CN(C)c1ccc(/C=C/c2cnc(OCCO)c(Br)c2)cc1,Ki,[1],3.6 nM
Oc1ccc(/C=C/c2cnc(OCCOCCOCCF)c(Br)c2)cc1,Ki,[1],14.2 nM
Oc1ccc(/C=C/c2cnc(OCCOCCOCCF)c(I)c2)cc1,Ki,[1],21 nM
OCCOc1ncc(/C=C/c2ccc(O)cc2)cc1[125I],Drug uptake,Liver [2],18.3 % ID/g
same,Drug uptake,Liver [3],5.15 % ID/g
same,Drug uptake,Lung [4],1.02 % ID/g
same,Drug uptake,Kidney [5],20.4 % ID/g
same,Drug uptake,Muscle tissue [6],0.21 % ID/g
same,Drug uptake,Liver [7],2.63 % ID/g
same,Drug uptake,Liver [8],2.38 % ID/g
same,Drug uptake,Brain [9],0.26 % ID/g
same,Drug uptake,Lung [10],3.1 % ID/g
same,Drug uptake,Lung [11],14.2 % ID/g
same,Drug uptake,Thyroid gland [12],4.38 % ID/g
same,Drug uptake,Zone of skin [13],0.64 % ID/g
same,Drug uptake,Kidney [14],2.94 % ID/g
same,Drug uptake,Spleen [15],4.2 % ID/g
same,Drug uptake,Muscle tissue [16],1.01 % ID/g
same,Drug uptake,Spleen [17],0.5 % ID/g
same,Drug uptake,Kidney [18],2.5 % ID/g
same,logD,[19],2.2
same,Drug uptake,Zone of skin [20],0.62 % ID/g
same,Drug uptake,Zone of skin [21],1.36 % ID/g
same,Drug uptake,Lung [22],1.34 % ID/g
same,Drug uptake,Thyroid gland [23],16 % ID/g
same,Drug uptake,Brain [24],0.99 % ID/g
same,Drug uptake,Brain [25],0.09 % ID/g
same,Drug uptake,Muscle tissue [26],0.59 % ID/g
same,Drug uptake,Spleen [27],1.28 % ID/g
same,Drug uptake,Spleen [28],0.5 % ID/g
same,Drug uptake,Brain [29],0.06 % ID/g
same,Drug uptake,Heart [30],0.51 % ID/g
same,Drug uptake,Heart [31],1.35 % ID/g
same,Drug uptake,Muscle tissue [32],0.12 % ID/g
same,Drug uptake,Blood [33],1.29 % ID/g
same,Drug uptake,Kidney [34],10 % ID/g
same,Drug uptake,Heart [35],0.65 % ID/g
same,Drug uptake,Blood [36],1.56 % ID/g
same,Drug uptake,Thyroid gland [38],13 % ID/g
same,Drug uptake,Heart [39],6.66 % ID/g
same,Drug uptake,Blood [40],3.92 % ID/g
same,Drug uptake,Thyroid gland [41],3.99 % ID/g
same,Drug uptake,Blood [42],10.1 % ID/g
same,Drug uptake,Zone of skin [43],0.37 % ID/g
